According to patent publication US12729377B2, “RNAi agents and compositions for inhibiting expression of angiopoietin-like 3 (ANGPTL3), and methods of use” (Arrowhead Pharmaceuticals, Inc., priority 2017, dated 2026):
In the oligonucleotide strings, read from the 5' end, every base follows the letter of its sugar. An asterisk marks phosphorothioate; unmarked linkages are phosphodiester. Other units and linkages are bracketed, terminal groups are in braces. A string of capitals states the bases alone. {NAG37} = tridentate N-acetyl-galactosamine targeting ligand, structure (NAG37)s; [invAb] = inverted abasic unit; m = 2'-O-methyl; f = 2'-fluoro

What was measured:
[1] = test system: ANGPTL3 gene; assay: Example 3: serum total cholesterol in mice; assay type: in vivo
Procedure: To assess the in vivo activity of ANGPTL3 RNAi agents that are designed to target positions 921 and 922 on the ANGPTL3 gene, six- to eight-week-old female C57bl/6 mice were used. Pre-dose serum samples were taken at day −1 after a four hour fast. At day 1, each mouse was given a single subcutaneous administration of 200 μl containing either 1 mg/kg (mpk) of an ANGPTL3 RNAi agent in D5W (dextrose in 5% water), or control (D5W) with no RNAi agent, according to the dosing groups recited in Table 12.
Each of the RNAi agents included a modified sequence and an N-acetyl-galactosamine-containing targeting ligand conjugated to the 5′ terminal end of the sense strand. (See Tables 3, 4, and 5 for modified sequences and targeting ligand structures). The injections were performed between the skin and muscle (i.e. subcutaneous injections) into the loose skin over the neck and shoulder area. Three (3) mice in each group were tested (n=3). […] Mice were fasted for four hours prior to each collection. ANGPTL3 protein levels in serum were measured by ELISA assay (R&D Systems), according to the manufacturer's recommendations. Triglycerides, high-density lipoprotein (HDL), and total cholesterol in serum were measured on a Cobas® Integra 400 (Roche Diagnostics), according to the manufacturer's recommendations.
(§1) The ANGPTL3 protein levels, triglyceride levels, HDL levels, and total cholesterol levels for each animal were normalized. For normalization, the level of ANGPTL3 protein, triglyceride, HDL, and total cholesterol, respectively, for each animal at a time point, was divided by the pre-treatment level of expression in that animal (in this case at day −1) to determine the ratio of expression “normalized to pre-treatment.” Expression at a specific time point was then normalized to the D5W control group by dividing the “normalized to pre-treatment” ratio for an individual animal by the mean “normalized to pretreatment” ratio of all mice in the D5W control group.

[2] = test system: ANGPTL3 protein; assay: Example 8: serum ANGPTL3 protein by ELISA in cynomolgus monkeys; assay type: in vivo, cynomolgus macaque (Macaca fascicularis); conditions: for Avg ANGPTL3 protein normalized to pre-treatment: 3.0 mg/kg single SC injection day 1, cynos, n=2
Procedure: (§2) Additional ANGPTL3 RNAi agents were evaluated in cynomolgus monkeys. On day 1, cynomolgus macaque (Macaca fascicularis) primates (also referred to herein as “cynos”) were administered a single subcutaneous injection of 0.3 mL/kg (approximately 1-2 mL volume, depending on animal mass) containing 3.0 mg/kg of one of ANGPTL3 RNAi agent AD05577, AD05307, AD05488, AD05654, or AD05659, each formulated in saline.
(§3) Two (2) cynos in each group were tested (n=2). Blood samples were drawn and serum samples were analyzed on days −8 (pre-dose), 1 (pre-dose), 8, 15, 22, 29, and 36. Cynos were fasted overnight prior to each collection. ANGPTL3 protein levels in serum were measured by ELISA assay (R&D Systems), according to the manufacturer's recommendations. Triglycerides, total cholesterol, high-density lipoprotein (HDL), and low-density lipoprotein (LDL) in serum were measured on a Cobas® Integra 400 (Roche Diagnostics), according to the manufacturer's recommendations.
(§4) The ANGPTL3 protein levels, triglyceride levels, total cholesterol levels, HDL levels, and LDL levels for each animal were normalized. For normalization, the level of ANGPTL3 protein, triglyceride, HDL, and total cholesterol, respectively, for each animal at a time point, was divided by the average pre-treatment level of expression in that animal (in this case at days −8, and 1 (pre-dose)) to determine the ratio of expression “normalized to pre-treatment.”

[3] = test system: ANGPTL3 gene; assay: Example 8: serum triglycerides in cynomolgus monkeys; assay type: in vivo, cynomolgus macaque (Macaca fascicularis); conditions: 3.0 mg/kg single SC injection day 1, cynos, n=2
Procedure: as §2, §3, §4

[4] = test system: ANGPTL3 gene; assay: Example 8: serum total cholesterol in cynomolgus monkeys; assay type: in vivo, cynomolgus macaque (Macaca fascicularis); conditions: 3.0 mg/kg single SC injection day 1, cynos, n=2
Procedure: as §2, §3, §4

[5] = test system: ANGPTL3 gene; assay: Example 8: serum HDL in cynomolgus monkeys; assay type: in vivo, cynomolgus macaque (Macaca fascicularis); conditions: 3.0 mg/kg single SC injection day 1, cynos, n=2
Procedure: as §2, §3, §4

[6] = test system: ANGPTL3 protein; assay: Example 2: serum ANGPTL3 protein by ELISA in mice; assay type: in vivo, C57bl/6 mice; conditions: for Avg ANGPTL3 (Average ANGPTL3 Protein Normalized to Pre-Treatment and Control): 3.0 mg/kg single subcutaneous dose on day 1, serum, female C57bl/6 mice
Procedure: (§5) To assess the in vivo activity of ANGPTL3 RNAi agents that are designed to target different positions on the ANGPTL3 gene, six- to eight-week-old female C57bl/6 mice were used. Pre-dose serum samples were taken at day −1 after a four hour fast. At day 1, each mouse was given a single subcutaneous administration of 200 μl containing either 3 mg/kg (mpk) of an ANGPTL3 RNAi agent in D5W (dextrose in 5% water), or control (D5W) with no RNAi agent, according to the dosing groups recited in Table 7.
(§6) Each of the RNAi agents included a modified sequence and an N-acetyl-galactosamine-containing targeting ligand conjugated to the 5′ terminal end of the sense strand. (See Tables 3, 4, and 5 for modified sequences and targeting ligand structures). The injections were performed between the skin and muscle (i.e. subcutaneous injections) into the loose skin over the neck and shoulder area. Three (3) mice in each group were tested (n=3). Serum was collected on days 8, […], 22, 29, and day 36 (for Groups 1 and 5-11 only). Mice were fasted for four hours prior to each collection. ANGPTL3 protein levels in serum were measured by ELISA assay (R&D Systems), according to the manufacturer's recommendations. Triglycerides, high-density lipoprotein (HDL), and total cholesterol in serum were measured on a Cobas® Integra 400 (Roche Diagnostics), according to the manufacturer's recommendations.
as §1

[7] = test system: ANGPTL3 gene; assay: Example 2: serum triglycerides in mice; assay type: in vivo
Procedure: as §5, §6, §1

[8] = Day 8, 1.0 mg/kg single subcutaneous dose on day 1, female C57bl/6 mice
[9] = Day 15, 1.0 mg/kg single subcutaneous dose on day 1, female C57bl/6 mice
[10] = Day 22, 1.0 mg/kg single subcutaneous dose on day 1, female C57bl/6 mice
[11] = Day 29, 1.0 mg/kg single subcutaneous dose on day 1, female C57bl/6 mice
[12] = day 29, single 3 mg/kg subcutaneous, C57bl/6 mice

AD05418: RNAi agent duplex: antisense AM07159-AS, sense AM07158-SS (antisense mU*fU*mU*fGmAfAmUfUmAfAmUfGmUfCmCfAmUfGmGfG*mU; sense {NAG37}*[invAb]*mAmCmCmCmAmUmGmGfAfCfAmUmUmAmAmUmUmCmAmAmA*[invAb])
Avg Total Chol (Average Total Cholestrol Normalized to Pre-Treatment and Control) [1, 8]: 0.783
Avg Total Chol (Average Total Cholestrol Normalized to Pre-Treatment and Control) [1, 9]: 0.842
Avg Total Chol (Average Total Cholestrol Normalized to Pre-Treatment and Control) [1, 10]: 0.916
Avg Total Chol (Average Total Cholestrol Normalized to Pre-Treatment and Control) [1, 11]: 0.953

AD05488: RNAi agent duplex: antisense AM07235-AS, sense AM07234-SS (antisense mU*fA*mC*fUmGfAmUfCmAfAmAfUmAfUmGfUmUfGmAfG*mC; sense {NAG37}*[invAb]*mGmCmUmCmAmAmCmAfUfAfUmUmUmGmAmUmCmAmGmUmA*[invAb])
Avg ANGPTL3 protein normalized to pre-treatment ([2]; Day 8): 0.423
Avg ANGPTL3 protein normalized to pre-treatment ([2]; Day 15): 0.334
Avg ANGPTL3 protein normalized to pre-treatment ([2]; Day 22): 0.343
Avg ANGPTL3 protein normalized to pre-treatment ([2]; Day 29): 0.276
Avg ANGPTL3 protein normalized to pre-treatment ([2]; Day 36): 0.229
reduction in ANGPTL3 protein compared to pre-treatment ([2]; all measured time points, single 3.0 mg/kg subcutaneous, cynomolgus monkeys): reduction
Avg TG normalized to pre-treatment ([3]; Day 8): 0.727
Avg TG normalized to pre-treatment ([3]; Day 15): 0.586
Avg TG normalized to pre-treatment ([3]; Day 22): 0.399
Avg TG normalized to pre-treatment ([3]; Day 29): 0.534
Avg TG normalized to pre-treatment ([3]; Day 36): 0.364
Avg Total Chol normalized to pre-treatment ([4]; Day 8): 0.840
Avg Total Chol normalized to pre-treatment ([4]; Day 15): 0.779
Avg Total Chol normalized to pre-treatment ([4]; Day 22): 0.743
Avg Total Chol normalized to pre-treatment ([4]; Day 29): 0.674
Avg Total Chol normalized to pre-treatment ([4]; Day 36): 0.722
Average HDL Normalized to Pre-Treatment ([5]; Day 8): 0.832
Average HDL Normalized to Pre-Treatment ([5]; Day 15): 0.695
Average HDL Normalized to Pre-Treatment ([5]; Day 22): 0.688
Average HDL Normalized to Pre-Treatment ([5]; Day 29): 0.657
Average HDL Normalized to Pre-Treatment ([5]; Day 36): 0.622

AD05308: RNAi agent duplex: antisense AM07003-AS, sense AM07002-SS (chain 1 mU*fG*mU*fUmGfAmAfUmUfAmAfUmGfUmCfCmAfUmGfG*mA; chain 2 {NAG37}*[invAb]*mUmCmCmAmUmGmGmAfCfAfUmUmAmAmUmUmCmAmAmCmA*[invAb])
Avg ANGPTL3 (Average ANGPTL3 Protein Normalized to Pre-Treatment and Control) ([6]; Day 8): 0.106
Avg ANGPTL3 (Average ANGPTL3 Protein Normalized to Pre-Treatment and Control) ([6]; Day 13): 0.076
Avg ANGPTL3 (Average ANGPTL3 Protein Normalized to Pre-Treatment and Control) ([6]; Day 22): 0.084
Avg ANGPTL3 (Average ANGPTL3 Protein Normalized to Pre-Treatment and Control) ([6]; Day 29): 0.088
Avg ANGPTL3 (Average ANGPTL3 Protein Normalized to Pre-Treatment and Control) ([6]; Day 36): 0.167
ANGPTL3 protein normalized to pre-treatment and control [6, 12]: 0.088
reduction in ANGPTL3 protein compared to control [6, 12]: approximately 91%
Avg TG (Average Triglycerides Normalized to Pre-Treatment and Control) ([7]; Day 8, 3.0 mg/kg single subcutaneous dose on day 1, female C57bl/6 mice): 0.375
Avg TG (Average Triglycerides Normalized to Pre-Treatment and Control) ([7]; Day 13, 3.0 mg/kg single subcutaneous dose on day 1, female C57bl/6 mice): 0.554
Avg TG (Average Triglycerides Normalized to Pre-Treatment and Control) ([7]; Day 22, 3.0 mg/kg single subcutaneous dose on day 1, female C57bl/6 mice): 0.399
Avg TG (Average Triglycerides Normalized to Pre-Treatment and Control) ([7]; Day 29, 3.0 mg/kg single subcutaneous dose on day 1, female C57bl/6 mice): 0.473
Avg TG (Average Triglycerides Normalized to Pre-Treatment and Control) ([7]; Day 36, 3.0 mg/kg single subcutaneous dose on day 1, female C57bl/6 mice): 0.430
Avg Total Chol (Average Total Cholestrol Normalized to Pre-Treatment and Control) [1, 8]: 0.872
Avg Total Chol (Average Total Cholestrol Normalized to Pre-Treatment and Control) [1, 9]: 0.768
Avg Total Chol (Average Total Cholestrol Normalized to Pre-Treatment and Control) [1, 10]: 1.048
Avg Total Chol (Average Total Cholestrol Normalized to Pre-Treatment and Control) [1, 11]: 0.978
